# Legend:
# PI3K-γ = PI3K-γ (Mus musculus (Mouse), UniProt Q9JHG7); test: PI3K-γ selective cellular assay: phospho-AKT in C5a stimulated RAW264.7 macrophages; format: cell-based; settings: ratio of RAJI p110 δ assay IC50 to Raw264.7 p110 γ assay IC50
# Excerpt: Cells can be treated with test compounds prior to, simultaneously with, or subsequent to the stimulation by C5a.
# [1] = target: γ isoform of human Class I PI3 kinases (Homo sapiens (Human), UniProt P48736); test: PI3-Kinase Promega ADP-Glo Max assay, γ isoform; format: biochemical; settings: for PI3K δ/PI3K γ IC50 (selectivity): ratio of PI3K δ IC50 to PI3K γ IC50
# Protocol: (§1) Promega ADP-Glo Max assay kit (Cat. No. V7002) was utilized to determine IC50 values for α, β, δ and γ isoforms of human Class I PI3 kinases (Millipore). […] Reactions were incubated at room temperature for 2 hours followed by addition of 25 uL of stop solution. After a 40-minute incubation at room temperature, 50 uL of Promega detection mix was added followed by incubation for 1 hour at room temperature. Plates were then read on Envision plate reader in lunimescence mode. Data was converted to % inhibition using the following equation below:
# (§2) [formula] where S is the sample luminescence, Pos is a positive control without added PI3K, Neg is the negative control without added compound. Data was then plotted as % inhibition vs compound concentration.
# [2] = target: α isoform of human Class I PI3 kinases (Homo sapiens (Human), UniProt P42336); test: PI3-Kinase Promega ADP-Glo Max assay, α isoform; format: biochemical; settings: read-out: PI3K α IC50
# Protocol: as §1, §2
# [3] = target: δ isoform of human Class I PI3 kinases (Homo sapiens (Human), UniProt O00329); test: PI3-Kinase Promega ADP-Glo Max assay, δ isoform; format: biochemical; settings: read-out: PI3K δ IC50
# Protocol: as §1, §2
# [4] = target: β isoform of human Class I PI3 kinases (Homo sapiens (Human), UniProt P42338); test: PI3-Kinase Promega ADP-Glo Max assay, β isoform; format: biochemical; settings: read-out: PI3K β IC50
# Protocol: as §1, §2
# PI3K/Akt/mTOR signaling = test: Kinase signaling in blood (phosflow); format: cell-based; settings: unfractionated splenocytes or peripheral blood mononuclear cells stimulated with anti-CD3
# Protocol: PI3K/Akt/mTOR signaling is measured in blood cells using the phosflow method (Methods Enzymol. (2007) 434:131-54). This method is by nature a single cell assay so that cellular heterogeneity can be detected rather than population averages. This allows concurrent distinction of signaling states in different populations defined by other markers. Phosflow is also highly quantitative. To test the effects of one or more compounds provided herein, unfractionated splenocytes, or peripheral blood mononuclear cells are stimulated with anti-CD3 to initiate T-cell receptor signaling. The cells are then fixed and stained for surface markers and intracellular phosphoproteins. […]
# Similarly, aliquots of whole blood are incubated for 15 minutes with vehicle (e.g., 0.1% DMSO) or kinase inhibitors at various concentrations, before addition of stimuli to crosslink the T cell receptor (TCR) (anti-CD3 with secondary antibody) or the B cell receptor (BCR) using anti-kappa light chain antibody (Fab′2 fragments). […] The level of phosphorylation of kinase substrates such as Akt and S6 are then measured by incubating the fixed cells with labeled antibodies specific to the phosphorylated isoforms of these proteins. The population of cells are then analyzed by flow cytometry.
# Chain of PI3K-γ (Q9JHG7 whole entry, canonical isoform): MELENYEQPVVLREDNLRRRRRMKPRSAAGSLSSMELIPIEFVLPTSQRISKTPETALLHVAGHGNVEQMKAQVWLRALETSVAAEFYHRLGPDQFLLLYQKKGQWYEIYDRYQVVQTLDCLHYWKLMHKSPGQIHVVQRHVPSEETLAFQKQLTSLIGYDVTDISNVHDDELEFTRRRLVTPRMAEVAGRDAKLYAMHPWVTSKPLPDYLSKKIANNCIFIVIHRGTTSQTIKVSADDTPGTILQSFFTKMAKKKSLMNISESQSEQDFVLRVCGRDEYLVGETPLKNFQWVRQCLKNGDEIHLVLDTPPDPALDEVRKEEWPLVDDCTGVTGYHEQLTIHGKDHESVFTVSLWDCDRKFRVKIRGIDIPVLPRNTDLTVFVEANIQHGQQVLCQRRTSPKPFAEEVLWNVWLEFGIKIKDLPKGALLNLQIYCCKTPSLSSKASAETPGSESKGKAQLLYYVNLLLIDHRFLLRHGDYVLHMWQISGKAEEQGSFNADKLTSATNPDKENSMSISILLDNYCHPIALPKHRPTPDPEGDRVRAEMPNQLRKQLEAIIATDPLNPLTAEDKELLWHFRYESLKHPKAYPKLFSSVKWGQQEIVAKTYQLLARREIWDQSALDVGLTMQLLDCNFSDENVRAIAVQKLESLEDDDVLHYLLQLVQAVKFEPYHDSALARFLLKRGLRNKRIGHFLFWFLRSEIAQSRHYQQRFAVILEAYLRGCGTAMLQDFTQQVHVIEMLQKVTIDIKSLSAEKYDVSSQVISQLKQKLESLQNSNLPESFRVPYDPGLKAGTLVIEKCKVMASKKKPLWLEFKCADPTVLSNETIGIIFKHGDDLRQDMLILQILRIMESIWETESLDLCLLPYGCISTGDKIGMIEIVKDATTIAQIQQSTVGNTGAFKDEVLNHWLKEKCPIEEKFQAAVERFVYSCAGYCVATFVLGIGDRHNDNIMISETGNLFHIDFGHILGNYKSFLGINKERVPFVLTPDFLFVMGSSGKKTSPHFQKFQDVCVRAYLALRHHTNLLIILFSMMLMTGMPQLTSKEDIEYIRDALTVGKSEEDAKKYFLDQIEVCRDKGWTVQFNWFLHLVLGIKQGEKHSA
# Chain of γ isoform of human Class I PI3 kinases (P48736 whole entry, canonical isoform): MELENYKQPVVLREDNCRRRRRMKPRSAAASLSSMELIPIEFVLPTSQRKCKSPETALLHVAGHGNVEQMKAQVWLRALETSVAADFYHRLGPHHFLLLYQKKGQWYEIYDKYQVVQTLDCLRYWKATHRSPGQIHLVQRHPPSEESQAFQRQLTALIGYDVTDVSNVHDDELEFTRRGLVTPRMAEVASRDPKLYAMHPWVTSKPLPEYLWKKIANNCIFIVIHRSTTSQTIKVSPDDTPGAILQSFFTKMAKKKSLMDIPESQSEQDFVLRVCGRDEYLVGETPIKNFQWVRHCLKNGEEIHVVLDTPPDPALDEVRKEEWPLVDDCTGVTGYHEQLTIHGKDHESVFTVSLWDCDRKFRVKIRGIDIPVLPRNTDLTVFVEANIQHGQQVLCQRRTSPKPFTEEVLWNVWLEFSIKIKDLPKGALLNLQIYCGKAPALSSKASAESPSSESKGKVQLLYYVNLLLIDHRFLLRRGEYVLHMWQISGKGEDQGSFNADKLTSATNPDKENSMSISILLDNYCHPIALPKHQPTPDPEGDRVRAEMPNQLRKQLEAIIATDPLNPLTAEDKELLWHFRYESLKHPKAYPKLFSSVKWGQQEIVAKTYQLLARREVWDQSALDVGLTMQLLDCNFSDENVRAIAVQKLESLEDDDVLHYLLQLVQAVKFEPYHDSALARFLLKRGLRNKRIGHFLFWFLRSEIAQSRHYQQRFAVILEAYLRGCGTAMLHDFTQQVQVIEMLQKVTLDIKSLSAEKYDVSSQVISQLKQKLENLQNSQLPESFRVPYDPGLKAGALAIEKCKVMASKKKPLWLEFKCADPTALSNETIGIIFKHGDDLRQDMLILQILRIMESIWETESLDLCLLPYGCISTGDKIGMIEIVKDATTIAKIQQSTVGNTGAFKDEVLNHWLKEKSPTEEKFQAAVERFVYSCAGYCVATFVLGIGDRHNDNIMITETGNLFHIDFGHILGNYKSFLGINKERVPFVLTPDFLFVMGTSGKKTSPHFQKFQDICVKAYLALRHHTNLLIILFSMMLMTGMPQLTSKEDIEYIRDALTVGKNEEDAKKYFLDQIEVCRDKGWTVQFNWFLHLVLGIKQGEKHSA
# Chain of α isoform of human Class I PI3 kinases (P42336 whole entry, canonical isoform): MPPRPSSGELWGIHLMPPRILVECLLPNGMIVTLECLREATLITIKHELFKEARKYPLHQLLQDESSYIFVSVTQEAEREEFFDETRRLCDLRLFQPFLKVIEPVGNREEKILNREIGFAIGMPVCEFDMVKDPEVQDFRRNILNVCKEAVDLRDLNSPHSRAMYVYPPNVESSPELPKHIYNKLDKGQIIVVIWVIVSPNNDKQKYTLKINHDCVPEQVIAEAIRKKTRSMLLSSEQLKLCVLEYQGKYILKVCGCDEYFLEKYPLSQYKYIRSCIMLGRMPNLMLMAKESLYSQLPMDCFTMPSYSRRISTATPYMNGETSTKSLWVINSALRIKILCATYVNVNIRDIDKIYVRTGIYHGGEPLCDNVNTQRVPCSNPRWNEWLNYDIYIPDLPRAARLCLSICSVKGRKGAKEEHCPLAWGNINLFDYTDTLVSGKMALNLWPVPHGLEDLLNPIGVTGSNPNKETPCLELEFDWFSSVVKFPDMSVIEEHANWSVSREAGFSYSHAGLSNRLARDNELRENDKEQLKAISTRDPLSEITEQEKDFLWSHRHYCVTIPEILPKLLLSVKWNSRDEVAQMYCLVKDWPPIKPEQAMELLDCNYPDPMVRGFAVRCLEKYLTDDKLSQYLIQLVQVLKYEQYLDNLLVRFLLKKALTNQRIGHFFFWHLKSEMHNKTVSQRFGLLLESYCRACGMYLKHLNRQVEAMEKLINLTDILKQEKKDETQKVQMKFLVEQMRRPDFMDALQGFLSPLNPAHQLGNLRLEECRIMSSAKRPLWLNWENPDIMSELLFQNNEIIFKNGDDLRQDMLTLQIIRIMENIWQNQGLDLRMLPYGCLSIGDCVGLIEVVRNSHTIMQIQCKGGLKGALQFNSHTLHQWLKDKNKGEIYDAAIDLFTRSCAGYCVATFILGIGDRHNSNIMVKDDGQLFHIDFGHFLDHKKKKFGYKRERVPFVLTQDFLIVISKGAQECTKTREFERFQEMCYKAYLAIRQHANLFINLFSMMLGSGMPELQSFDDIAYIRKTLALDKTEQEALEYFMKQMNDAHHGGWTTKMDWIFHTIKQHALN
# Chain of α isoform of human Class I PI3 kinases (P27986 whole entry partner, canonical isoform): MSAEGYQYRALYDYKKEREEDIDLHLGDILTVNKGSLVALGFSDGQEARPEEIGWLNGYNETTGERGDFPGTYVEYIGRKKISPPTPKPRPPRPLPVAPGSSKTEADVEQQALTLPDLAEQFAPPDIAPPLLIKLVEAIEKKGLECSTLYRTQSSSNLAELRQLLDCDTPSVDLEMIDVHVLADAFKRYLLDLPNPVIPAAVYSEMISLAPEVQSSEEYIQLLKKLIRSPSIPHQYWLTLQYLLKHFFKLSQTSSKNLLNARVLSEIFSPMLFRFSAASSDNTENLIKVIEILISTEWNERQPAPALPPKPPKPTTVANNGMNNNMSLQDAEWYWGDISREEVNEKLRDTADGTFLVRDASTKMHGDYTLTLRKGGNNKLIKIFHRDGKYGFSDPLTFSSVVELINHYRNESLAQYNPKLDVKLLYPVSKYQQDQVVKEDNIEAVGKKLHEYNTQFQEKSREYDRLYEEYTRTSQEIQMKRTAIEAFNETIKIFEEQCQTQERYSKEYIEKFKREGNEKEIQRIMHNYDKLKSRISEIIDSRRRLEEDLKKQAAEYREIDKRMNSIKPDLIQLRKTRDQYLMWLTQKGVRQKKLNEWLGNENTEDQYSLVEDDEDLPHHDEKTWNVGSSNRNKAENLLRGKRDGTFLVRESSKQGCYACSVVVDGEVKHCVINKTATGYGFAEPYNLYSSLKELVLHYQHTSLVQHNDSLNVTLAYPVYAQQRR
# Chain of β isoform of human Class I PI3 kinases (P42338 whole entry, canonical isoform): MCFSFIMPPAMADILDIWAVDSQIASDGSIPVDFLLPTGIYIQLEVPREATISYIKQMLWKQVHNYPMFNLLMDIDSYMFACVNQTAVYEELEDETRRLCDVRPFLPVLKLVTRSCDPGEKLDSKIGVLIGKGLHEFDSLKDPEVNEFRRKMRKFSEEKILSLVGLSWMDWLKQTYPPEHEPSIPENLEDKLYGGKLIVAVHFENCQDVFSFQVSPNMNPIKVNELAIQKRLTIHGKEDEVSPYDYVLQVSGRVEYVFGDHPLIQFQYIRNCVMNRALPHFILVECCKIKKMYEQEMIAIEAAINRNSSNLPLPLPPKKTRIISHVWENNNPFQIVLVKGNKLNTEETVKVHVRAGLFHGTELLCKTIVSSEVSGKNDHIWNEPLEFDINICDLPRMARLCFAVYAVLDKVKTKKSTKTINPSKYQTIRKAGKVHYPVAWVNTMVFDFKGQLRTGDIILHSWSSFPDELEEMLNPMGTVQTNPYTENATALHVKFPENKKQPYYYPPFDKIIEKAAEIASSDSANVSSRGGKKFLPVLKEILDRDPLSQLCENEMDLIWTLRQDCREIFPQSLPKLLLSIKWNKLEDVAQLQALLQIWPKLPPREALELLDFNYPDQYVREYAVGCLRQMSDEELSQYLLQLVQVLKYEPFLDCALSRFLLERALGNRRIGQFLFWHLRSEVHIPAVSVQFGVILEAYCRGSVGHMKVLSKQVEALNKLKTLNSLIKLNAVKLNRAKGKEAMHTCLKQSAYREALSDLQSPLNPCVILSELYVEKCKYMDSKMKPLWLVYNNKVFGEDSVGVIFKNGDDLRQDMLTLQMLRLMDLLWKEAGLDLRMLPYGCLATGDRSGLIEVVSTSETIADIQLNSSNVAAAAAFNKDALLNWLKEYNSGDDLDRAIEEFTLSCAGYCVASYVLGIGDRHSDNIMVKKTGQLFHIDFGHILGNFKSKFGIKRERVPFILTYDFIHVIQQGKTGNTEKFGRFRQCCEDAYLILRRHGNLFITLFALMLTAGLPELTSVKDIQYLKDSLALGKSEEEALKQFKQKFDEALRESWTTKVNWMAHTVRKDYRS
# Chain of β isoform of human Class I PI3 kinases (P27986 whole entry partner, canonical isoform): as the sequence (P27986 whole entry partner, canonical isoform) above
SMILES,RAJI δ/Raw264.7 γ IC50 (selectivity) (PI3K-γ),PI3K δ/PI3K γ IC50 (selectivity) [1],other results
C[C@H](NC(=O)c1c(N)nn2cccnc12)c1cc2cccc(C#CC=O)c2c(=O)n1-c1ccccc1 [Compound 36],W (W = >1 to <10),X (X = 10 to <50),–
C[C@H](NC(=O)c1c(N)nn2cccnc12)c1cc2cccc(C#Cc3ccn[nH]3)c2c(=O)n1-c1ccccc1 [Compound 43],X (X = 10 to <50),Y (Y = 50 to <850),IC50 [2]: 5 to 10 µM; IC50 [3]: 5 to 10 µM; IC50 ([1]; read-out: PI3K γ IC50): 0.1 to 0.5 µM; IC50 [4]: 5 to 10 µM
C/C=C/c1cccc2cc([C@H](C)NC(=O)c3c(N)nn4cccnc34)n(-c3ccccc3)c(=O)c12 [Compound 70],–,X (X = 10 to <50),–
C[C@H](NC(=O)c1c(N)nn2cccnc12)c1cc2cccc(C#CC3CNC3)c2c(=O)n1-c1ccccc1 [Compound 74],W (W = >1 to <10),W (W = >1 to <10),–
C[C@H](NC(=O)c1c(N)nn2cccnc12)c1cc2cccc(C#Cc3cn[nH]c3)c2c(=O)n1-c1ccccc1 [Compound 80],Y (Y = 50 to <850),Y (Y = 50 to <850),–
CC(=O)N1CCC(C#Cc2cccc3cc([C@H](C)NC(=O)c4c(N)nn5cccnc45)n(-c4ccccc4)c(=O)c23)CC1 [Compound 82],X (X = 10 to <50),X (X = 10 to <50),–
C[C@H](NC(=O)c1c(N)nn2cccnc12)c1cc2cccc(C#CC3CCN(S(C)(=O)=O)CC3)c2c(=O)n1-c1ccccc1 [Compound 83],X (X = 10 to <50),X (X = 10 to <50),–
"Cc1c(C#Cc2cccc3nc([C@H](C)NC(=O)c4c(N)nn5cccnc45)n(-c4ccccc4)c(=O)c23)cnn1C [Compound 88, (S)-2-amino-N-(1-(5-((1,5-dimethyl-1H-pyrazol-4-yl)ethynyl)-4-oxo-3-phenyl-3,4-dihydroquinazolin-2-yl)ethyl)pyrazolo[1,5-a]pyrimidine-3-carboxamide]",Y (Y = 50 to <850),X (X = 10 to <50),–
C[C@H](NC(=O)c1c(N)nn2cccnc12)c1cc2cccc(NC(=O)c3cnn(C)c3)c2c(=O)n1-c1ccccc1 [Compound 90],X (X = 10 to <50),W (W = >1 to <10),–
CO[C@H]1C[C@@H]2CC[C@@H](C)[C@@](O)(O2)C(=O)C(=O)N2CCCC[C@H]2C(=O)O[C@H]([C@H](C)C[C@@H]2CC[C@@H](O)[C@H](OC)C2)CC(=O)[C@H](C)/C=C(\C)[C@@H](O)[C@@H](OC)C(=O)[C@H](C)C[C@H](C)/C=C/C=C/C=C/1C [rapamycin],–,–,anti-CD3 mediated phosphorylation of Akt-S473 (PI3K/Akt/mTOR signaling): enhances; anti-CD3 mediated phosphorylation of S6 (PI3K/Akt/mTOR signaling): inhibits

# Source: patent US10329299B2, “Heterocyclic compounds and uses thereof” (Infinity Pharmaceuticals, Inc., priority 2013, dated 2019)
